The source made the active and inactive calls. No cut-off for these calls is given here. Square brackets hold non-standard residues; d marks the D form. Peptide text beside a SMILES is read from it. * marks the point of attachment. Phe(F5) = N[C@@H](Cc1c(F)c(F)c(F)c(F)c1F)C(=O)O; β3hW = N[C@H](CC(=O)O)Cc1c[nH]c2ccccc12; 1Nal = N[C@@H](Cc1cccc2ccccc12)C(=O)O; β3hY = N[C@H](CC(=O)O)Cc1ccc(O)cc1; Asu = N[C@@H](CCCCCC(=O)O)C(=O)O; β3hL = CC(C)C[C@H](N)CC(=O)O; hLys = NCCCCC[C@H](N)C(=O)O; Carboxymethyl = O=C(O)C*; CH2CH2COOH = O=C(O)CC*; Aib = CC(C)(N)C(=O)O; X1 = CCC(=O)CC*; NHOH = ON*
Assays:
[1] = biological target: Histone deacetylase 1 (Homo sapiens, UniProt Q13547)
Description: Inhibition of human recombinant HDAC1 after 30 mins by fluorimetric assay

[2] = biological target: T1, Histone deacetylase 8 (Homo sapiens, UniProt Q9BY41)
T1 sequence (Q9BY41 whole entry): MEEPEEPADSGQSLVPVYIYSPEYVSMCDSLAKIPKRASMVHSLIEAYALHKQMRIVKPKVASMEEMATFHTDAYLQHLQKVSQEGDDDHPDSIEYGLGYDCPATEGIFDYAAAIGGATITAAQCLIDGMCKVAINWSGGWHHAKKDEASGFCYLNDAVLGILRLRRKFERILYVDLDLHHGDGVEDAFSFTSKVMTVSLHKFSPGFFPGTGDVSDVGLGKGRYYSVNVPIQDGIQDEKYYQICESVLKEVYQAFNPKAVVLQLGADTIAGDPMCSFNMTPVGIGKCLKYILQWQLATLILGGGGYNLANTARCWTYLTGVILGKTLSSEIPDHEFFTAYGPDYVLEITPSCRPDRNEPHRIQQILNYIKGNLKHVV
Description: Inhibition of human recombinant HDAC8 after 30 mins by fluorimetric assay

[3] = biological target: Histone deacetylase 3 (Homo sapiens, UniProt O15379)
Description: Inhibition of human recombinant HDAC3 after 30 mins by fluorimetric assay

[4] = biological target: T2, Protein deacetylase HDAC6 (Homo sapiens, UniProt Q9UBN7)
T2 sequence (Q9UBN7 whole entry): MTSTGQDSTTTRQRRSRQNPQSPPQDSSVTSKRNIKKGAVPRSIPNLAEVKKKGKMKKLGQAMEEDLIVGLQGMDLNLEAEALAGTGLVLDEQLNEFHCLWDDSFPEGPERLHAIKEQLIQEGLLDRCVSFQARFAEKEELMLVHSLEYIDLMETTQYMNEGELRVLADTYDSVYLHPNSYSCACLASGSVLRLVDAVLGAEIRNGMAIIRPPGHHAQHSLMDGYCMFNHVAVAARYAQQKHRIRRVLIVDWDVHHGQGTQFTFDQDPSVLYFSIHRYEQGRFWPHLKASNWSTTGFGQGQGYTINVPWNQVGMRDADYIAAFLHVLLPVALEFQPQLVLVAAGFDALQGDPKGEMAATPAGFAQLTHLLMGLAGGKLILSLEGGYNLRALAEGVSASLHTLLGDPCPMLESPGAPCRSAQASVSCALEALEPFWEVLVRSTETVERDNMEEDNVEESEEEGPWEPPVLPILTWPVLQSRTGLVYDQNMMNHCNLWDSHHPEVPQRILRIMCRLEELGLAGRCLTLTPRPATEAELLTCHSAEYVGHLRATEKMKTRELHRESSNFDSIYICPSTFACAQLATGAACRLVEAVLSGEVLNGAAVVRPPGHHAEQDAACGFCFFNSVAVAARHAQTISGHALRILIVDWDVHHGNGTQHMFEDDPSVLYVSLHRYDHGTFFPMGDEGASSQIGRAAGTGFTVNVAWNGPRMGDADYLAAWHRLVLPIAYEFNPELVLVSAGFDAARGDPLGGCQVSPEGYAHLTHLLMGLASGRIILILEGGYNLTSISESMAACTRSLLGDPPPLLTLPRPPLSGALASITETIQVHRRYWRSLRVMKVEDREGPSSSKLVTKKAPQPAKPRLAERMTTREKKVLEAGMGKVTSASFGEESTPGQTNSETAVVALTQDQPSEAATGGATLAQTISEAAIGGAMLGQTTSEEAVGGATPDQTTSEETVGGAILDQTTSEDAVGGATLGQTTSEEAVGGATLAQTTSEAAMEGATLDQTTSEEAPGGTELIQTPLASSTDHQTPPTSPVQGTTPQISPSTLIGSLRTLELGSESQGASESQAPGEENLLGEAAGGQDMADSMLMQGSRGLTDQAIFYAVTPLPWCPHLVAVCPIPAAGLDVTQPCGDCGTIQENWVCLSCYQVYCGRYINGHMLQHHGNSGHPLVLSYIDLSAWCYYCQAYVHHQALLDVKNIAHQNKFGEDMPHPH
Description: Inhibition of human recombinant HDAC6 after 30 mins by fluorimetric assay

[5] = biological target: Histone deacetylase; format: cell-based, Homo sapiens; details: hela
Description: Inhibition of HDAC in human HeLa cell cytosolic extract after 30 mins by fluorimetric assay

[6] = tested on: K562; experiment: cells; details: Homo sapiens, K562, 72 h
[7] = tested on: Jurkat; experiment: cells; details: Homo sapiens, 72 h
[8] = tested on: HeLa; experiment: cells; details: Homo sapiens, 72 h
[9] = biological target: Histone deacetylase; format: cell-based, Homo sapiens; details: hela; remark: listed apart in the source
Description: Inhibition of HDAC in human HeLa cell nuclear extract after 30 mins by fluorimetric assay

[10] = cells; details: Homo sapiens, KYO1, 72 h
[11] = tested on: MCF7; experiment: cells; details: Homo sapiens, MCF7, 72 h
[12] = biological target: T3, Protein deacetylase HDAC6 (Homo sapiens) (UniProt Q9UBN7); experiment: Inhibition of HDAC6 in human Jurkat cells assessed as acetylated alpha-tubulin level at 0.2 to 20 uM after 24 hrs by Western blotting; format: cell-based
T3 sequence (whole entry): T2 sequence (Q9UBN7 whole entry)

[13] = biological target: Histone deacetylase (Homo sapiens) (UniProt Q13547+O15379+Q9UBN7+Q92769+Q9UQL6+Q8WUI4+Q9BY41+Q96DB2+P56524+Q9UKV0+Q969S8); experiment: Inhibition of class 1 HDAC in human Jurkat cells assessed as acetylated histone H3 level at 0.2 to 20 uM after 24 hrs by Western blotting; format: cell-based

Histone deacetylase 3, sequence (O15379 whole entry): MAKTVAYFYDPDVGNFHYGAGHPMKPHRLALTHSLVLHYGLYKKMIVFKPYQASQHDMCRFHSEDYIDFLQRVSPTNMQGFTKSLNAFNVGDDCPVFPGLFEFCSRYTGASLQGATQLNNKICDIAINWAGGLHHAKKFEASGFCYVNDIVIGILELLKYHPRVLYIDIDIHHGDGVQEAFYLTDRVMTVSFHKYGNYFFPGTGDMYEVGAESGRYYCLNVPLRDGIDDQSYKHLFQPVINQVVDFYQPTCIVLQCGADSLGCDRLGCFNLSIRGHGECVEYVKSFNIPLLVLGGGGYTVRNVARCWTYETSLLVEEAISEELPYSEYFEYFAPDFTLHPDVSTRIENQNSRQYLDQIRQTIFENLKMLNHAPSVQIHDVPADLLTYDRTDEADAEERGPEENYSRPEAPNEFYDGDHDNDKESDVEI
Histone deacetylase 1, sequence (Q13547 whole entry): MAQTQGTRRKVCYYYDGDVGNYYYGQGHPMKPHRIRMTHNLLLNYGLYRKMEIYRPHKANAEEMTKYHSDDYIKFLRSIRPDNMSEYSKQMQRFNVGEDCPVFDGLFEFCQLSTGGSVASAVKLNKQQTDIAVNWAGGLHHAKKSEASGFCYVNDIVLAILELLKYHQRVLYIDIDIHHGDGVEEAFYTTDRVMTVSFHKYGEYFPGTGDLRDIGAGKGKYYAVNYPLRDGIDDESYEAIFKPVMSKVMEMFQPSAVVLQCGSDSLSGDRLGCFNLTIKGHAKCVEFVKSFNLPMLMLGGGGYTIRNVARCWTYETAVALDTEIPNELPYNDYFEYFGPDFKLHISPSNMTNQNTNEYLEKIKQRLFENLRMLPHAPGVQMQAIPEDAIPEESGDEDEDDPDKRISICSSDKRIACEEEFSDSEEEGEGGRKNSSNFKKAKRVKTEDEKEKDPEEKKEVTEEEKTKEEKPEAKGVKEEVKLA

| SMILES | IC50 [1] [µM] | IC50 [2] [µM] | IC50 [3] [µM] | IC50 [4] [µM] | other results |
| --- | --- | --- | --- | --- | --- |
| CC(C)C[C@H]1CC(=O)N[C@@H](C)C(=O)N[C@@H](CSCC(=O)O)C(=O)N[C@@H](Cc2c[nH]c3ccccc23)C(=O)N1 (cyclo(C(Carboxymethyl)W[β3hL]A)) | > 10 | 9.7 | > 10 | > 10 | – |
| O=C(O)CCCCC[C@@H]1NC(=O)[C@H](Cc2c(F)c(F)c(F)c(F)c2F)NC(=O)C[C@H](Cc2ccc(O)cc2)NC(=O)[C@H](Cc2cccc3ccccc23)NC1=O (cyclo([1Nal][β3hY][Phe(F5)][Asu])) | 1 | 6.7 | – | > 10 | – |
| N=C(N)NCCC[C@@H]1NC(=O)C[C@H](Cc2ccc(O)cc2)NC(=O)[C@H](Cc2cccc3ccccc23)NC(=O)[C@H](CCCCCC(=O)O)NC1=O (cyclo([Asu][1Nal][β3hY]R)) | – | 1.4 | – | – | – |
| O=C(O)CCCCC[C@@H]1NC(=O)[C@H]2CCCCN2C(=O)C[C@H](Cc2ccccc2)NC(=O)[C@H](Cc2c[nH]c3ccccc23)NC1=O | – | – | – | – | IC50 [5]: 0.791 µM |
| CC(=O)NCCCCC[C@@H]1NC(=O)C[C@H](CC(C)C)NC(=O)[C@H](Cc2cccc3ccccc23)NC(=O)[C@H](CCCCCC(=O)O)NC1=O (cyclo([1Nal][β3hL][hLys](Ac)[Asu])) | 0.008 | – | 0.032 | > 10 | GI50 [6]: 30 µM; GI50 [7]: 0.3 µM; GI50 [8]: 18 µM; IC50 [9]: 0.017 µM; GI50 [10]: 43 µM |
| CCC(=O)CCCCC[C@@H]1NC(=O)[C@H](CCCCNC(C)=O)NC(=O)C[C@H](CC(C)C)NC(=O)[C@H](Cc2c[nH]c3ccccc23)NC1=O | – | – | – | – | GI50 [7]: > 20 µM; GI50 [8]: > 20 µM; GI50 [11]: > 20 µM |
| CC(C)C[C@H]1CC(=O)N[C@@H](C)C(=O)N[C@@H](CCCCCC(=O)O)C(=O)N[C@@H](Cc2ccccc2)C(=O)N1 (cyclo(A[Asu]F[β3hL])) | – | – | – | – | IC50 [5]: 0.541 µM |
| CC(=O)NCCCC[C@@H]1NC(=O)C[C@H](Cc2ccc(O)cc2)NC(=O)[C@H](Cc2cccc3ccccc23)NC(=O)[C@H](CCCCCC(=O)O)NC1=O (cyclo([1Nal][β3hY]K(Ac)[Asu])) | – | – | – | 4.4 | – |
| O=C(O)CCCCC[C@@H]1NC(=O)[C@H](Cc2ccccc2)NC(=O)C[C@H](Cc2c[nH]c3ccccc23)NC(=O)[C@H](Cc2cccc3ccccc23)NC1=O (cyclo([1Nal][β3hW]F[Asu])) | 0.46 | – | 1.67 | 8 | IC50 [5]: 1.009 µM; IC50 [9]: 1.04 µM |
| CC(C)C[C@H]1CC(=O)N[C@@H](Cc2ccccc2)C(=O)N[C@@H](CCCCCC(=O)O)C(=O)N[C@@H](Cc2cccc3ccccc23)C(=O)N1 (cyclo([1Nal][β3hL]F[Asu])) | 0.068 | 0.53 | 0.69 | 5.8 | GI50 [6]: > 20 µM; IC50 [5]: 0.742 µM; GI50 [7]: > 20 µM; GI50 [8]: > 20 µM; Activity [12]: inactive; IC50 [9]: 0.253 µM; Activity [13]: Active; GI50 [10]: > 20 µM; GI50 [11]: > 20 µM |
| CC[C@]1(O)C[C@@H]2CN(CCc3c([nH]c4ccccc34)[C@@](C(=O)OC)(c3cc4c(cc3OC)N(C)[C@H]3[C@@](O)(C(=O)OC)[C@H](OC(C)=O)[C@]5(CC)C=CCN6CC[C@]43[C@@H]65)C2)C1 [VINBLASTINE] | – | – | – | – | GI50 [10]: < 0.1 µM; GI50 [11]: 10 µM |
| CC(C)C[C@H]1CC(=O)N[C@@H](C)C(=O)N[C@@H](CCCCCC(=O)O)C(=O)N[C@@H](Cc2cccc3ccccc23)C(=O)N1 (cyclo([Asu][1Nal][β3hL]A)) | 0.2 | – | 0.99 | – | IC50 [5]: 0.377 µM; IC50 [9]: 0.205 µM |
| CC(C)C[C@H]1CC(=O)N[C@@H](C)C(=O)N[C@@H](CSCCC(=O)O)C(=O)N[C@@H](Cc2c[nH]c3ccccc23)C(=O)N1 (cyclo(C(CH2CH2COOH)W[β3hL]A)) | 4.84 | 6.05 | 7.08 | > 10 | – |
| CC(C)C[C@H]1CC(=O)N[C@@H](C)C(=O)N[C@@H](CCCCCC(=O)NO)C(=O)N[C@@H](Cc2c[nH]c3ccccc23)C(=O)N1 (cyclo([Asu](NHOH)W[β3hL]A)) | – | – | – | – | GI50 [7]: 1.7 µM |
| CC(C)C[C@H]1CC(=O)N[C@@H](CCCNC(=N)N)C(=O)N[C@@H](CCCCCC(=O)O)C(=O)N[C@@H](Cc2cccc3ccccc23)C(=O)N1 (cyclo([Asu][1Nal][β3hL]R)) | 0.178 | 0.607 | 0.262 | 1.4 | – |
| CCC(=O)CCCCC[C@@H]1NC(=O)[C@H](C)NC(=O)C[C@H](CC(C)C)NC(=O)[C@H](Cc2c[nH]c3ccccc23)NC1=O | – | – | – | – | GI50 [6]: 2 µM; GI50 [11]: > 20 µM |
| CCC(=O)CCCCC[C@@H]1NC(=O)C[C@H](CC(C)C)NC(=O)[C@H](Cc2c[nH]c3ccccc23)NC(=O)[C@H](CCCCCC(=O)CC)NC1=O | 0.15 | 1.4 | 0.26 | > 10 | – |
| CCC(=O)CCSC[C@@H]1NC(=O)[C@H](C)NC(=O)C[C@H](CC(C)C)NC(=O)[C@H](Cc2c[nH]c3ccccc23)NC1=O (cyclo(AC(X1)W[β3hL])) | > 10 | > 10 | > 10 | > 10 | – |
| N=C(N)NCCC[C@@H]1NC(=O)C[C@H](Cc2ccc(O)cc2)NC(=O)[C@H](CC(=O)O)NC(=O)[C@H](CCCCCC(=O)NO)NC1=O (cyclo([Asu](NHOH)D[β3hY]R)) | – | – | – | – | GI50 [7]: > 20 µM; GI50 [8]: 9 µM; Activity [12]: Active; Activity [13]: inactive; GI50 [11]: > 20 µM |
| CC(=O)NCCCC[C@@H]1NC(=O)C[C@H](CC(C)C)NC(=O)[C@H](Cc2c[nH]c3ccccc23)NC(=O)[C@H](CSCCC(=O)O)NC1=O (cyclo(C(CH2CH2COOH)W[β3hL]K(Ac))) | – | 7.04 | > 10 | > 10 | – |
| CC(C)C[C@H]1CC(=O)N[C@@H](Cc2ccccc2)C(=O)N[C@@H](CCCCCC(=O)NO)C(=O)N[C@@H](Cc2c[nH]c3ccccc23)C(=O)N1 (cyclo([Asu](NHOH)W[β3hL]F)) | – | – | 0.031 | 0.07 | GI50 [6]: 1.9 µM; GI50 [7]: 1.3 µM; GI50 [10]: 1.9 µM |
| CC(C)C[C@H]1CC(=O)NC(C)(C)C(=O)N[C@@H](CCCCCC(=O)O)C(=O)N[C@@H](Cc2cccc3ccccc23)C(=O)N1 (cyclo([1Nal][β3hL][Aib][Asu])) | – | 0.87 | – | – | – |
| CC1(C)NC(=O)C[C@H](Cc2c[nH]c3ccccc23)NC(=O)[C@H](Cc2cccc3ccccc23)NC(=O)[C@H](CCCCCC(=O)O)NC1=O (cyclo([1Nal][β3hW][Aib][Asu])) | – | – | – | 3.7 | – |
